Experimental data from US4871771A, “Leukotriene antagonists” (SmithKline Beckman Corporation, priority 1988, dated 1989).

Key:
[1] = target: T1, LTB4 Induced Ca^2 + flux (U937 cells) (Homo sapiens, UniProt Q15722); assay: LTB4 induced calcium mobilization (Ca2+ flux) in U937 cells measured with fura-2; format: cell-based
T1 construct: endogenous in cells; host or cells: U937 cells, DMSO-differentiated, intact
Method: The methods employed were as follows.
Cells were grown both in T-flasks and in Spinner culture.
Harvested cells were resuspended at 2×10^6 cells/ml in Krebs Ringer Hensilet buffer containing 0.1% BSA (RIA grade), 1.1 mM MgSO4, 1.0 mM CaCl2 and 5 mM HEPES (pH 7.4, buffer B). The diacetomethoxy ester of fura-2 (fura-2/AM) was added to a final concentration of 2 uM and cells incubated in the dark for 30 minutes at 37° C. The cells were centrifuged at 800×g for 10 minutes and resuspended at 2×10^6 cells/ml in fresh buffer B and incubated at 37° C. for 20 minutes to allow for complete hydrolysis of entrapped ester. The cells were centrifuged at 800×g for 10 minutes and resuspended in cold fresh buffer B at 5×10^6 cells/ml. Cells were maintained on ice in the dark until used for fluorescent measurements.
The fluorescence of fura-2 containing U937 cells was measured with a fluorometer designed by the Johnson Foundation Biomedical Instrumentation Group. Fluorometer is equipped with temperature control and a magnetic stirrer under the cuvette holder. […] All experiments were performed at 37° C. with constant mixing.
U937 cells were diluted with fresh buffer to a concentration of 1×10^6 cells/ml and maintained in the dark on ice. Aliquots (2 ml) of the cell suspension were put into 4 ml cuvettes and the temperature brought up to 37° C. (maintained in 37° C. water bath for 10 min). Cuvettes were transferred to the fluorometer and fluorescence measured for about one minute before addition of stimulants or antagonists and followed for about 2 minutes post stimulus. Agonists and antagonists were added as 2 ul aliquots.
Antagonists were added first to the cells in the fluorometer in order to detect potential agonist activity. […] [Ca^2+ ]i was calculated using the following formula: [formula] F was the maximum relative fluorescence measurement of the sample. Fmax was determined by lysing the cells with 10 ul of 10% Triton X-100 (final Concentration 0.02%). After Fmax was determined 67 ul of 100 mM EGTA solution (pH 10) was added to totally chelate the Ca^2+ and quench the fura-2 signal and obtain the Fmin. […] The Ki for calcium mobilization was determined using the formula: [formula]

[2] = target: T2, [^3 H]-LTB4 binding sites on human U937 cell membranes (Homo sapiens, UniProt Q15722); assay: Receptor binding affinity: competition for [3H]-LTB4 binding sites on human U937 cell membranes; conditions: [3H]-LTB4 about 0.2 nM, 25°, 30 minutes
T2 construct: Harvested U937 cells were washed with 50 mM Tris-HCl; endogenous in cells; host or cells: U937 cells (membrane-enriched fraction)
T2 sequence (Q15722 whole entry): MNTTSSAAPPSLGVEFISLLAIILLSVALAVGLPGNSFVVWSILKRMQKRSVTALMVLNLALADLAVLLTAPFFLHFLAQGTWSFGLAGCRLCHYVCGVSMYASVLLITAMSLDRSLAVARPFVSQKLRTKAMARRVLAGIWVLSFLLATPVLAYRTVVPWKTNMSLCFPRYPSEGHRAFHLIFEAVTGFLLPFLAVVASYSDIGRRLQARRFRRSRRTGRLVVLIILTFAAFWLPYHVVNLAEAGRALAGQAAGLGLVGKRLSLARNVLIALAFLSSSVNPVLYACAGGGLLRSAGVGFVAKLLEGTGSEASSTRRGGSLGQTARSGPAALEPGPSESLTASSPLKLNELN

T1 sequence (Q15722 whole entry): as above

O=C(O)CCSC(SCCC(=O)O)c1ccccc1CCCCCCCSc1ccc(F)cc1
Ki [1]: 6.4 µM | Ki [2]: 3.3 µM

CCCCCCCCCC/C=C/c1ccccc1C(SCCC(=O)O)SCCC(=O)O
Ki [2]: 4.3 µM

CCCCCCCCCCC#Cc1ccccc1C(SCCC(=O)O)SCCC(=O)O
Ki [2]: 7 µM

CCCCCCCCCCCOc1ccccc1C(SCCC(=O)O)SCCC(=O)O
Ki [2]: 5.3 µM

C#CCCCCCCCCCOc1ccccc1C(SCCC(=O)O)SCCC(=O)O
Ki [2]: 10 µM

O=C(O)CCSC(SCCC(=O)O)c1cc(C(F)(F)F)ccc1CCCCCCCCc1ccccc1
Ki [2]: 9.6 µM

O=C(O)CCSC(SCCC(=O)O)c1ccccc1CCCCCCCSc1ccc(Br)cc1
Ki [1]: 6.7 µM | Ki [2]: 2.8 µM

COc1ccc(SCCCCCCCc2ccccc2C(SCCC(=O)O)SCCC(=O)O)cc1
Ki [1]: 7.6 µM | Ki [2]: 1.2 µM

CCCCCCCCCCCCc1ccccc1C(SCCC(=O)O)SCCC(=O)O
Ki [2]: 6.5 µM

O=C(O)CCSC(SCCC(=O)O)c1ccccc1CCCCCCCCCCCC(F)(F)F
Ki [1]: 7.8 µM

O=C(O)CCSC(SCCC(=O)O)c1ccccc1CCCCCCc1ccccc1
Ki [2]: 4.5 µM

O=C(O)CCSC(SCCC(=O)O)c1cccc(CCCCCCCCc2ccccc2)c1
Ki [1]: 5.2 µM | Ki [2]: 2.1 µM

CCCCCCCCCC/C=C\c1ccccc1C(SCCC(=O)O)SCCC(=O)O
Ki [2]: 7.3 µM

CCCCCCCCCCCOc1ccc(O)cc1C(SCCC(=O)O)SCCC(=O)O
Ki [2]: 6 µM

O=C(O)CCSC(SCCC(=O)O)c1ccccc1OCCCCCCCc1ccccc1
Ki [2]: 5.3 µM

CCCCCCCCCCCCc1ccccc1C(SCCC(=O)O)[S+]([O-])CCC(=O)O (stereo not drawn)
Ki [2]: 5.3 µM

O=C(O)CCSC(SCCC(=O)O)c1ccccc1CCCCCCCCCCc1ccccc1
Ki [1]: 4.8 µM | Ki [2]: 11 µM

O=C(O)CCSC(SCCC(=O)O)c1ccc(C(F)(F)F)cc1CCCCCCCCc1ccccc1
Ki [1]: 8.7 µM | Ki [2]: 1.3 µM

CCCCCCCCCCCOc1ccc([N+](=O)[O-])cc1C(SCCC(=O)O)SCCC(=O)O
Ki [1]: 5 µM | Ki [2]: 2.2 µM

O=C(O)CCSC(SCCC(=O)O)c1ccccc1CCCCCCCCc1ccccc1
Ki [1]: 7 µM | Ki [2]: 4.4 µM

CCCCCCCCCCCOc1ccc(Br)cc1C(SCCC(=O)O)SCCC(=O)O
Ki [1]: 5.6 µM | Ki [2]: 4.2 µM
